In patent US6440991B1, “Ethers of 7-desmethlrapamycin” (Wyeth, priority 2000, dated 2002):
In brackets after ≈: the same amount, converted by molar mass.

Assays:
Type in all cases: cell-based
Aspergillus fumigatus = assay: Antifungal activity, microtiter broth dilution MIC; settings: Aspergillus fumigatus strain ATCC 26933; RPMI 1640, 35° C., 24-48 hours
Procedure: (§1) The antifungal activity for the ethers of 7-desmethylrapamycin of this invention was confirmed in a standard pharmacological test procedure which measured the ability of the compound being evaluated to inhibit fungal growth. 42-O-(2-Hydroxy)ethyl 7-desmethylrapamycin […] (Compound I) was evaluated as a representative compound of this invention. The procedure used and results obtained are briefly described below. A 96 U-bottom microtiter plate was filled (50 μl/well) with RPMI 1640. The compounds to be evaluated were placed in appropriate wells, and serial diluted in successive wells to provide 11 dilutions. The concentrations ranged from 64 through 0.06 μug/ml. An adjusted inoculum of fungi (50 μl) was added to each well and the plates were incubated at 35° C. for 24-48 hours. […] Nystatin and amphotericin B were used for the purpose of comparison.

Aspergillus niger = assay: Antifungal activity, microtiter broth dilution MIC; settings: RPMI 1640, 35° C., 24-48 hours
Procedure: as §1

Candida albicans = assay: Antifungal activity, microtiter broth dilution MIC; settings: RPMI 1640, 35° C., 24-48 hours
Procedure: as §1

Candida krussii = assay: Antifungal activity, microtiter broth dilution MIC; settings: Candida krussii strain 94-2; RPMI 1640, 35° C., 24-48 hours
Procedure: as §1

Candida lusitaniae = assay: Antifungal activity, microtiter broth dilution MIC; settings: Candida lusitaniae strain 94-3; RPMI 1640, 35° C., 24-48 hours
Procedure: as §1

Candida parapsilosis = assay: Antifungal activity, microtiter broth dilution MIC; settings: RPMI 1640, 35° C., 24-48 hours
Procedure: as §1

Candida pseudotropicalis = assay: Antifungal activity, microtiter broth dilution MIC; settings: Candida pseudotropicalis strain ATCC 28838; RPMI 1640, 35° C., 24-48 hours
Procedure: as §1

Candida rugosa = assay: Antifungal activity, microtiter broth dilution MIC; settings: Candida rugosa strain 94-10; RPMI 1640, 35° C., 24-48 hours
Procedure: as §1

Candida tropicalis = assay: Antifungal activity, microtiter broth dilution MIC; settings: RPMI 1640, 35° C., 24-48 hours
Procedure: as §1

[1] = test system: U87MG human glioblastoma cells; assay: Inhibition of U87MG human glioblastoma cell growth (3H-thymidine incorporation); settings: 48 hours incubation with compound
Procedure: The antineoplastic activity of the compounds of this invention were confirmed in a standard pharmacological test procedure which measures the inhibition of U87MG human glioblastoma cell growth (as a function of ^3H-thymidine incorporation), using 42-O-(2-hydroxy)ethyl 7-desmethylrapamycin (Compound I) as a representative compound of this invention. The following briefly describes the procedure used and results obtained. U87MG human glioblastoma cells (ATCC # HTB-14; available from the American Type Culture Collection; 10801 University Boulevard; Manassas, Va. 20110;), were grown in the following media.
Growth Medium: BRL Minimum Essential Medium with Earle Salts (500 mL)
+5 mL BRL MEM Non-Essential Amino Acids (10 mM)
+5 mL BRL Penicillin-Streptomycin (1 0000u/mL,1 0000 μg/mL)
+5 mL BRL Na Pyruvate Solution (100 mM)
+5 mL BRL L-Glutamine 200 mM
+50 mL BRL Fetal Bovine Serum (Qualified)
1. Cells were trypsinized and plated at a concentration of 10^4 cells/well in a final volume of 200 μL growth medium in 96-well flat bottom plates and allowed to adhere for 24 hours at 37° C.
2. The media was removed by aspiration with care to not disturb the cell monolayer. 200 μL of fresh growth media was added per well, allowing enough wells for samples to be run in triplicate. […]
4. […] Mats were counted in a Wallac Betaplate counter.

[2] = Candida albicans strain ATCC 90028
[3] = Candida parapsilosis strain 94-8
[4] = Candida parapsilosis strain 94-9
[5] = Candida parapsilosis strain ATCC 90018
[6] = Candida tropicalis strain 94-13
[7] = Candida tropicalis strain 94-14

| Compound | ANTIFUNGAL ACTIVITY (MIC) (Aspergillus fumigatus) | ANTIFUNGAL ACTIVITY (MIC) (Aspergillus niger; Aspergillus niger strain S399) | ANTIFUNGAL ACTIVITY (MIC) (Aspergillus niger; Aspergillus niger strain S430) | ANTIFUNGAL ACTIVITY (MIC) (Candida albicans; Candida albicans strain 1063) | ANTIFUNGAL ACTIVITY (MIC) (Candida albicans; Candida albicans strain 1117) | ANTIFUNGAL ACTIVITY (MIC) (Candida albicans; [2]) | ANTIFUNGAL ACTIVITY (MIC) (Candida krussii) | ANTIFUNGAL ACTIVITY (MIC) (Candida lusitaniae) | ANTIFUNGAL ACTIVITY (MIC) (Candida parapsilosis; [3]) | ANTIFUNGAL ACTIVITY (MIC) (Candida parapsilosis; [4]) | ANTIFUNGAL ACTIVITY (MIC) (Candida parapsilosis; [5]) | ANTIFUNGAL ACTIVITY (MIC) (Candida pseudotropicalis) | ANTIFUNGAL ACTIVITY (MIC) (Candida rugosa) | ANTIFUNGAL ACTIVITY (MIC) (Candida tropicalis; [6]) | ANTIFUNGAL ACTIVITY (MIC) (Candida tropicalis; [7]) | IC50 [1] |
| --- | --- | --- | --- | --- | --- | --- | --- | --- | --- | --- | --- | --- | --- | --- | --- | --- |
| C[C@@H]1[C@H](O)[C@@H](C)/C=C/C=C/C=C/C=C/C=C/C=C/C=C/[C@H](O[C@@H]2O[C@H](C)[C@@H](O)[C@H](N)[C@@H]2O)C[C@@H]2O[C@](O)(C[C@@H](O)C[C@@H](O)[C@H](O)CC[C@@H](O)C[C@@H](O)CC(=O)O[C@H]1C)C[C@H](O)[C@H]2C(=O)O [Amphotericin B, amphotericin B] | 0.25 µg/mL | 0.50 µg/mL | 0.25 µg/mL | ≦0.06 μg/mL | 0.12 µg/mL | 0.12 µg/mL | 0.12 µg/mL | ≦0.06 μg/mL | ≦0.06 μg/mL | 0.12 µg/mL | ≦0.06 μg/mL | ≦0.06 μg/mL | 0.25 µg/mL | ≦0.06 μg/mL | ≦0.06 μg/mL |  |
| CO[C@@H]1C[C@H](C[C@@H](C)[C@@H]2CC(=O)[C@H](C)/C=C(\C)[C@@H](O)[C@@H](OC)C(=O)[C@H](C)C[C@H](C)/C=C/C=C/C=C(\C)[C@@H](O)C[C@@H]3CC[C@@H](C)[C@@](O)(O3)C(=O)C(=O)N3CCCC[C@H]3C(=O)O2)CC[C@H]1OCCO [Compound I, 42-O-(2-Hydroxy)ethyl 7-desmethyirapamycin] | 64 µg/mL | 64 µg/mL | 64 µg/mL | 1 µg/mL | 2 µg/mL | 2 µg/mL | 0.5 µg/mL | 1 µg/mL | 2 µg/mL | 2 µg/mL | 2 µg/mL | 2 µg/mL | 1 µg/mL | 0.5 µg/mL | 0.5 µg/mL | 0.0035 µg/mL (≈ 3.71 nM) |
| C[C@@H]1[C@H](O)[C@@H](C)/C=C/C=C/CC/C=C/C=C/C=C/C=C/C(O[C@H]2O[C@H](C)[C@@H](O)[C@H](N)[C@@H]2O)CC2O[C@](O)(CC(O)C(O)CCC(O)CC(O)CC(O)CC(=O)O[C@H]1C)CC(O)C2C(=O)O (stereo partly shown) [Nystatin] | 2 µg/mL | 2 µg/mL | 1 µg/mL | 1 µg/mL | 1 µg/mL | 1 µg/mL | 1 µg/mL | 1 µg/mL | 2 µg/mL | 1 µg/mL | 2 µg/mL | 1 µg/mL | 1 µg/mL | 1 µg/mL | 1 µg/mL |  |
